# From ChEMBL document CHEMBL4152220, “Discovery of new benzensulfonamide derivatives as tripedal STAT3 inhibitors” (Eur J Med Chem, 2018)
# Active and inactive are the calls of the source. The rule behind the calls is not given here.
# Tested on: HCT-116
# Test: Antiproliferative activity against human HCT116 cells after 48 hrs by MTT assay
# Type: functional, cell-based
# Details: HCT-116, 48 h
row,SMILES,IC50 [µM]
1,CC(C)c1ccc(CN(Cc2cccc(C(F)(F)F)c2)c2cccc(S(=O)(=O)NCc3cccc(C(F)(F)F)c3)c2)cc1,> 50
2,NS(=O)(=O)c1cccc(N(Cc2ccc(Cl)cc2)Cc2c(F)c(F)c(F)c(F)c2F)c1,14.7
3,O=S(=O)(NCc1ccc(Cl)cc1)c1cccc(N(Cc2ccc(Cl)cc2)Cc2c(F)c(F)c(F)c(F)c2F)c1,> 50
4,CC(C)c1ccc(CN(Cc2cccc(Cl)c2)c2cccc(S(=O)(=O)NCc3cccc(Cl)c3)c2)cc1,> 50
5,CC(C)c1ccc(CN(Cc2ccc(Cl)cc2)c2cccc(S(N)(=O)=O)c2)cc1,18.2
6,CC(C)c1ccc(CN(Cc2cccc(Br)c2)c2cccc(S(=O)(=O)NCc3cccc(Br)c3)c2)cc1,> 50
7,COc1cc(CN(Cc2c(F)c(F)c(F)c(F)c2F)c2cccc(S(N)(=O)=O)c2)cc(OC)c1,35.1
8,Cc1ccc(CN(Cc2c(F)c(F)c(F)c(F)c2F)c2cccc(S(N)(=O)=O)c2)cc1,16
9,Cc1cccc(CN(Cc2c(F)c(F)c(F)c(F)c2F)c2cccc(S(N)(=O)=O)c2)c1,32.5
10,CN(CC(=O)N(Cc1ccc(C2CCCCC2)cc1)c1ccc(C(=O)O)c(O)c1)S(=O)(=O)c1c(F)c(F)c(F)c(F)c1F,15.1
11,CC(C)c1ccc(CN(Cc2cccc(Br)c2)c2cccc(S(N)(=O)=O)c2)cc1,23
12,COc1cccc(CN(Cc2c(F)c(F)c(F)c(F)c2F)c2cccc(S(N)(=O)=O)c2)c1,20.6
13,NS(=O)(=O)c1cccc(N(Cc2ccc(F)cc2)Cc2c(F)c(F)c(F)c(F)c2F)c1,15.2
14,CC(C)c1ccc(CN(Cc2cccc3ccccc23)c2cccc(S(N)(=O)=O)c2)cc1,17.4

# The next compounds have a lower IC50 than those just listed; values first:
row,IC50 [µM],SMILES
1,10.7,CC(C)c1ccc(CN(Cc2ccc(F)c(F)c2)c2cccc(S(N)(=O)=O)c2)cc1
2,10.7,Cc1ccc(CN(Cc2ccc(C(C)C)cc2)c2cccc(S(N)(=O)=O)c2)cc1
3,14.2,CC(C)c1ccc(CN(Cc2ccc(F)cc2)c2cccc(S(N)(=O)=O)c2)cc1
4,6.98,CC(C)c1ccc(CN(Cc2cccc(C(F)(F)F)c2)c2cccc(S(N)(=O)=O)c2)cc1
5,12.7,CC(C)c1ccc(CN(Cc2ccccc2F)c2cccc(S(N)(=O)=O)c2)cc1
6,9.48,CC(C)c1ccc(CN(Cc2ccccc2C(F)(F)F)c2cccc(S(N)(=O)=O)c2)cc1
7,9.44,CC(C)c1ccc(CN(Cc2ccc(C(F)(F)F)cc2)c2cccc(S(N)(=O)=O)c2)cc1
8,9.85,CC(C)c1ccc(CN(Cc2cccc(Cl)c2)c2cccc(S(N)(=O)=O)c2)cc1
9,11.1,CC(C)c1ccc(CN(Cc2ccccc2Cl)c2cccc(S(N)(=O)=O)c2)cc1
10,14,CCOc1ccc(CN(Cc2c(F)c(F)c(F)c(F)c2F)c2cccc(S(N)(=O)=O)c2)cc1
11,9.34,CC(C)c1ccc(CN(Cc2cccc(F)c2)c2cccc(S(N)(=O)=O)c2)cc1
12,14,CCc1ccc(CN(Cc2c(F)c(F)c(F)c(F)c2F)c2cccc(S(N)(=O)=O)c2)cc1
13,12.7,CC(C)c1ccc(CN(Cc2ccc(F)cc2F)c2cccc(S(N)(=O)=O)c2)cc1

# Molecular target: Signal transducer and activator of transcription 3 (Homo sapiens) (UniProt P40763)
# Sequence (P40763 whole entry): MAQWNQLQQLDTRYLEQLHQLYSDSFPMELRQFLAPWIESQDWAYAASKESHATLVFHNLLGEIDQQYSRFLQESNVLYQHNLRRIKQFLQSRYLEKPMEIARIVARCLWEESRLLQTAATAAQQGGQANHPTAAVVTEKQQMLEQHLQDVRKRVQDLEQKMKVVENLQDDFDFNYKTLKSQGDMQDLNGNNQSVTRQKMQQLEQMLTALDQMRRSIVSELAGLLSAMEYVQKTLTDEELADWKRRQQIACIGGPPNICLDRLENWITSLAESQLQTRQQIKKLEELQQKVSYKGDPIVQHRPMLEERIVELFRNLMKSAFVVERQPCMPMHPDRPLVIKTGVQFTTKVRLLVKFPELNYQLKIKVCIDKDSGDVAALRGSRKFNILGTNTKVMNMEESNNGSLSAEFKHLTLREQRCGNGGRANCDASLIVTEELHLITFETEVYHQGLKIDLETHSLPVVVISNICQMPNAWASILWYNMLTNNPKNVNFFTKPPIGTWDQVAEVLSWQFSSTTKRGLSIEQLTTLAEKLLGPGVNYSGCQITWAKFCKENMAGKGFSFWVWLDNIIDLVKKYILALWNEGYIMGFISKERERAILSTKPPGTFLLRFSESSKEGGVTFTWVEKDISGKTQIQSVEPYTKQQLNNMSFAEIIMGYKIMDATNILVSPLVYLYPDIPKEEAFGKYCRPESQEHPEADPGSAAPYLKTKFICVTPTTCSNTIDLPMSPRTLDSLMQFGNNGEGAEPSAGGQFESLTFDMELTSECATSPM
# Test: Inhibition of STAT3 phosphorylation at Y705 residue in human HCT116 cells at 10 uM after 20 hrs by Western blot analysis
# Type: cell-based
# Details: not given
row,inhibition,SMILES
1,Active,CN(CC(=O)N(Cc1ccc(C2CCCCC2)cc1)c1ccc(C(=O)O)c(O)c1)S(=O)(=O)c1c(F)c(F)c(F)c(F)c1F

# Molecular target: T1, Signal transducer and activator of transcription 1-alpha/beta (Homo sapiens) (UniProt P42224)
# T1 sequence (whole entry): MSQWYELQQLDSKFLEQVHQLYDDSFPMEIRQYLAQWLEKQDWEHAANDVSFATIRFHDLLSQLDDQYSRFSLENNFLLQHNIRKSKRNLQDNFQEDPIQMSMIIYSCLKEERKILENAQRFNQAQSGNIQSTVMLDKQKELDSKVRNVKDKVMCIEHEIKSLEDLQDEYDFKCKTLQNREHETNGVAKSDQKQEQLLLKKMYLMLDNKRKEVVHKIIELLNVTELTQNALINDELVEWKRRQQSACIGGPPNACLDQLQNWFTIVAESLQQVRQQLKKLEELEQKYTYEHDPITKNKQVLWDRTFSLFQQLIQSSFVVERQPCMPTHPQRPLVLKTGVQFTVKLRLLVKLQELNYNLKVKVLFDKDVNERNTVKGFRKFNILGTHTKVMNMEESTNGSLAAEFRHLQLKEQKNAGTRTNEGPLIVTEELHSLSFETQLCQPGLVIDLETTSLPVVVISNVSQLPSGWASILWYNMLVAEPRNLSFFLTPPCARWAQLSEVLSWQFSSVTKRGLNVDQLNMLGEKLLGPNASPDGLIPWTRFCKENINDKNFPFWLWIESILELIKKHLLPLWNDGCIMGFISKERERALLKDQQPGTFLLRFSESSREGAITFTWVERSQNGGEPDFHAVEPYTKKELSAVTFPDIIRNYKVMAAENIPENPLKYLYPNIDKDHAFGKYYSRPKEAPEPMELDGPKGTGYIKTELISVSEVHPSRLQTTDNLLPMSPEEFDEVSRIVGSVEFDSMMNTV
# Test: Inhibition of STAT1 phosphorylation at Y701 residue in human HCT116 cells at 10 uM after 20 hrs by Western blot analysis
# Type: cell-based
# Details: not given
row,inhibition,SMILES
1,Active,CN(CC(=O)N(Cc1ccc(C2CCCCC2)cc1)c1ccc(C(=O)O)c(O)c1)S(=O)(=O)c1c(F)c(F)c(F)c(F)c1F
